For one data set, the target named is T1, human GIPR (Homo sapiens, UniProt P48546).
T1 construct: expressed in transfected cells; host or cells: CHO-K1 (CRE-LUC/CHO-K1), plasmid hGIPR/pMSRα-neo
T1 sequence (P48546 22-466): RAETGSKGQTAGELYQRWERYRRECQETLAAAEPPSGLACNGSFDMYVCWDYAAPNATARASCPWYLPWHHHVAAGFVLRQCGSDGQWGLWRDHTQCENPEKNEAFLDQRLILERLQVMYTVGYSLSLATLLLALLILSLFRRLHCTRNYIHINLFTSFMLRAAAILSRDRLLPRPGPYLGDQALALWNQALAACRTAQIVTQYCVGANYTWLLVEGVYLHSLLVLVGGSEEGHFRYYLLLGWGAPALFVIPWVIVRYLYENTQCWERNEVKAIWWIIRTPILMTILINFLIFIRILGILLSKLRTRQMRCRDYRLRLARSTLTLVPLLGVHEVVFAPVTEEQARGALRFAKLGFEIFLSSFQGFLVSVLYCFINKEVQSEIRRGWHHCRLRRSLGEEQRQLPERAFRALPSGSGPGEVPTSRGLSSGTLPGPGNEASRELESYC
In words: Agonist activity against human GIPR, CRE-luciferase reporter assay (rise in intracellular cAMP) in hGIPR/CRE-LUC/CHO-K1 cells. It counts as cell-based. In general terms: In a reporter assay the amount or activity of a reporter protein is the signal.

The next data set concerns the target T2, human glucagon R (Homo sapiens, UniProt P47871).
T2 construct: expressed in transfected cells; host or cells: CHO-K1 (CRE-LUC/CHO-K1), plasmid hGlucagonR/pMSRα-neo
Put plainly: Agonist activity against human glucagon R, CRE-luciferase reporter assay in hGlucagonR/CRE-LUC/CHO-K1 cells. It counts as cell-based.

In the next data set the target is T3, human GLP-1R (Homo sapiens, UniProt P43220).
T3 construct: expressed in transfected cells; host or cells: CHO-K1, plasmids hGLP-1/pIRESneo3 and Cre-luc(Zeo)
In words: Agonist activity against human GLP-1R, CRE-luciferase reporter assay in hGLP-1R/CRE-luc/CHO-K1 cells. Format: cell-based.

The nature of data set [1]: Solubility test in Britton-Robinson buffer, observed visually. It counts as physicochemical. As to the method: The test compound of approximately 2 mg was measured precisely. Solvents (10 μL, 20 μL or 40 μL) with different pH (Britton-Robinson buffer (pH 3, 5, 7, 9)) were added to each test compound at 25° C., and the solubility was observed visually.

Each structure is given as a SMILES string. Read-outs that look alike come from different tables or passages of the source. Square brackets hold non-standard residues; d marks the D form. Peptide text beside a SMILES is read from it. αMeF = C[C@](N)(Cc1ccccc1)C(=O)O; 4Pal = N[C@@H](Cc1ccncc1)C(=O)O; Cha = N[C@@H](CC1CCCCC1)C(=O)O; Aib = CC(C)(N)C(=O)O

T3 sequence (P43220 24-463): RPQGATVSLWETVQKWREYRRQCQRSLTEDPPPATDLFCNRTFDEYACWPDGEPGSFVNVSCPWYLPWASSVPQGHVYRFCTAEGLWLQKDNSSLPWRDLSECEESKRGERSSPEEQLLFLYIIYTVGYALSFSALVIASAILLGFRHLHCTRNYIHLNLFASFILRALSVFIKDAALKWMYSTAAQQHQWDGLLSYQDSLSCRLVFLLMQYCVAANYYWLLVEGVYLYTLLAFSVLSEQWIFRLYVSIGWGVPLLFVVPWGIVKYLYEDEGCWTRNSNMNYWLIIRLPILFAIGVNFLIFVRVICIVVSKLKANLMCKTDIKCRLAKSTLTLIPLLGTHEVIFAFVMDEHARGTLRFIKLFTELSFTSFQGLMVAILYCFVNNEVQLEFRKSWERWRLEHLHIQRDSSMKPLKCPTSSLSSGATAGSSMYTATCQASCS
T2 sequence (P47871 26-477): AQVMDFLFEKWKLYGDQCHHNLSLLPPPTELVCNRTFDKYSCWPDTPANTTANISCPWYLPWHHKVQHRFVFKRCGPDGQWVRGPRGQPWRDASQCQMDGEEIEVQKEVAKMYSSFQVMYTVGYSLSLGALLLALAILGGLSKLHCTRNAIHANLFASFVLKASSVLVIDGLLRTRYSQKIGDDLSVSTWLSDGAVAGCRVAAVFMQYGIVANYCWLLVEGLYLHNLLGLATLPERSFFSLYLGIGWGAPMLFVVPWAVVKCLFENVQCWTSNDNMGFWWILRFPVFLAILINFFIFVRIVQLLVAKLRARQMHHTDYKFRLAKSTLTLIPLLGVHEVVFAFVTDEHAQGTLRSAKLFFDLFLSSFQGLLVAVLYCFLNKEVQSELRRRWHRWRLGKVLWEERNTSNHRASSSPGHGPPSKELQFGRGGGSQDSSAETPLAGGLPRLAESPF

The EC50 is the midpoint of the concentration-response curve. In general, solubility refers to how much of the substance goes into solution per volume. Lower therefore signals a poorly soluble substance. Regarding `CC(C)C[C@H](NC(=O)[C@H](CC(C)C)NC(=O)[C@H](Cc1c[nH]c2ccccc12)NC(=O)[C@H](CCCCN)NC(=O)[C@@H](NC(=O)[C@H](Cc1ccccc1)NC(=O)[C@H](CCC(=O)O)NC(=O)[C@H](CCC(N)=O)NC(=O)[C@H](CCC(N)=O)NC(=O)[C@H](C)NC(=O)[C@H](CCC(N)=O)NC(=O)[C@H](CCCCN)NC(=O)[C@H](CC(=O)O)NC(=O)[C@H](CC(C)C)NC(=O)[C@H](Cc1ccc(O)cc1)NC(=O)[C@H](CCCCN)NC(=O)C(C)(C)NC(=O)[C@H](Cc1ccc(O)cc1)NC(=O)[C@H](CC(=O)O)NC(=O)[C@H](CO)NC(=O)[C@@H](NC(=O)[C@](C)(Cc1ccccc1)NC(=O)[C@@H](NC(=O)CNC(=O)[C@H](CCC(=O)O)NC(=O)C(C)(C)NC(=O)[C@@H](N)Cc1ccc(O)cc1)[C@@H](C)O)[C@@H](C)O)C(C)C)C(=O)N[C@@H](CCCCN)C(=O)NCC(=O)NCC(=O)N1CCC[C@H]1C(=O)N[C@@H](CO)C(=O)N[C@@H](CO)C(=O)NCC(=O)N[C@@H](C)C(=O)N1CCC[C@H]1C(=O)N1CCC[C@H]1C(=O)N1CCC[C@H]1C(=O)N[C@@H](CO)C(N)=O` [Example 26] (H-Y[Aib]EGT[αMeF]TSDY[Aib]KYLDKQAQQEFVKWLLKGGPSSGAPPPS-NH2), the EC50 is 0.013 nM at human GIPR (hGIPR/CRE-LUC/CHO-K1 cells, 4 hours incubation, 10 nM GIP = 100%, read-out: Agonist activity (EC50) hGIPR); > 1000 nM at human glucagon R (hGlucagonR/CRE-LUC/CHO-K1 cells, 4 hours incubation, 10 nM glucagon = 100%, read-out: Agonist activity (EC50) hGCGR); 0.015 nM on human GLP-1R (hGLP-1R/CRE-luc/CHO-K1 cells, 4 hours incubation, 10 nM GLP-1 = 100%, read-out: Agonist activity (EC50) hGLP-1R). Also, the solubility in data set [1] (pH 3), in data set [1] (pH 5), in data set [1] (pH 7) and in data set [1] (pH 9) was > 200 mg/mL in each case.
In the case of `CC(C)C[C@H](NC(=O)[C@H](CC(C)C)NC(=O)[C@H](Cc1c[nH]c2ccccc12)NC(=O)[C@H](CCCCN)NC(=O)[C@@H](NC(=O)[C@H](Cc1ccccc1)NC(=O)[C@H](CCC(=O)O)NC(=O)[C@H](C)NC(=O)[C@H](CCC(N)=O)NC(=O)[C@H](C)NC(=O)[C@H](CCC(N)=O)NC(=O)[C@H](CCCCN)NC(=O)[C@H](CC(=O)O)NC(=O)[C@H](CC(C)C)NC(=O)C(C)(C)NC(=O)[C@H](CCCCN)NC(=O)C(C)(C)NC(=O)[C@H](Cc1ccc(O)cc1)NC(=O)[C@H](CC(=O)O)NC(=O)[C@H](CO)NC(=O)[C@@H](NC(=O)[C@](C)(Cc1ccccc1)NC(=O)[C@@H](NC(=O)CNC(=O)[C@H](CCC(=O)O)NC(=O)C(C)(C)NC(=O)[C@@H](N)Cc1ccc(O)cc1)[C@@H](C)O)[C@@H](C)O)C(C)C)C(=O)N[C@@H](CCCCN)C(=O)NCC(=O)NCC(=O)N1CCC[C@H]1C(=O)N[C@@H](CO)C(=O)N[C@@H](CO)C(=O)NCC(=O)N[C@@H](C)C(=O)N1CCC[C@H]1C(=O)N1CCC[C@H]1C(=O)N1CCC[C@H]1C(=O)N[C@@H](CO)C(=O)N[C@@H](CCCCN)C(N)=O` [Example 9] (H-Y[Aib]EGT[αMeF]TSDY[Aib]K[Aib]LDKQAQAEFVKWLLKGGPSSGAPPPSK-NH2), the EC50 on human GIPR is 0.008 nM; at human glucagon R, > 1000 nM; on human GLP-1R, 0.015 nM.
Take `CC(C)C[C@H](NC(=O)[C@H](CC(C)C)NC(=O)[C@H](Cc1c[nH]c2ccccc12)NC(=O)[C@H](CCCCN)NC(=O)[C@@H](NC(=O)[C@H](Cc1ccccc1)NC(=O)[C@H](CCC(=O)O)NC(=O)[C@H](C)NC(=O)[C@H](CCC(N)=O)NC(=O)[C@H](C)NC(=O)[C@H](CCC(N)=O)NC(=O)[C@H](CCCCN)NC(=O)[C@H](CC(=O)O)NC(=O)[C@H](CC(C)C)NC(=O)[C@H](CC1CCCCC1)NC(=O)[C@H](CCCCN)NC(=O)C(C)(C)NC(=O)[C@H](Cc1ccc(O)cc1)NC(=O)[C@H](CC(=O)O)NC(=O)[C@H](CO)NC(=O)[C@@H](NC(=O)[C@](C)(Cc1ccccc1)NC(=O)[C@@H](NC(=O)CNC(=O)[C@H](CCC(=O)O)NC(=O)C(C)(C)NC(=O)[C@@H](N)Cc1ccc(O)cc1)[C@@H](C)O)[C@@H](C)O)C(C)C)C(=O)N[C@@H](CCCCN)C(=O)NCC(=O)NCC(=O)N1CCC[C@H]1C(=O)N[C@@H](CO)C(=O)N[C@@H](CO)C(=O)NCC(=O)N[C@@H](C)C(=O)N1CCC[C@H]1C(=O)N1CCC[C@H]1C(=O)N1CCC[C@H]1C(=O)N[C@@H](CO)C(=O)N[C@@H](CCCCN)C(N)=O` [Example 16] (H-Y[Aib]EGT[αMeF]TSDY[Aib]K[Cha]LDKQAQAEFVKWLLKGGPSSGAPPPSK-NH2): the EC50 is 0.0091 nM on human GIPR, > 1000 nM on human glucagon R and 0.015 nM at human GLP-1R.
The matching figures for `CC[C@H](C)[C@H](NC(=O)C(C)(C)NC(=O)[C@H](Cc1ccc(O)cc1)NC(=O)[C@H](CC(=O)O)NC(=O)[C@H](CO)NC(=O)[C@@H](NC(=O)[C@](C)(Cc1ccccc1)NC(=O)[C@@H](NC(=O)CNC(=O)[C@H](CCC(=O)O)NC(=O)C(C)(C)NC(=O)[C@@H](N)Cc1ccc(O)cc1)[C@@H](C)O)[C@@H](C)O)C(=O)N[C@@H](CC1CCCCC1)C(=O)N[C@@H](CC(C)C)C(=O)N[C@@H](CC(=O)O)C(=O)N[C@@H](CCCCN)C(=O)N[C@@H](CCC(N)=O)C(=O)N[C@@H](C)C(=O)N[C@@H](CCC(N)=O)C(=O)N[C@@H](C)C(=O)N[C@@H](CCC(=O)O)C(=O)N[C@@H](Cc1ccccc1)C(=O)N[C@H](C(=O)N[C@@H](CCCCN)C(=O)N[C@@H](Cc1c[nH]c2ccccc12)C(=O)N[C@@H](CC(C)C)C(=O)N[C@@H](CC(C)C)C(=O)N[C@@H](CCCCN)C(=O)NCC(=O)NCC(=O)N1CCC[C@H]1C(=O)N[C@@H](CO)C(=O)N[C@@H](CO)C(=O)NCC(=O)N[C@@H](C)C(=O)N1CCC[C@H]1C(=O)N1CCC[C@H]1C(=O)N1CCC[C@H]1C(=O)N[C@@H](CO)C(=O)N[C@@H](CCCCN)C(N)=O)C(C)C` [Example 14] (H-Y[Aib]EGT[αMeF]TSDY[Aib]I[Cha]LDKQAQAEFVKWLLKGGPSSGAPPPSK-NH2): 0.013 nM, > 1000 nM and 0.021 nM.
Consider `CC(C)C[C@H](NC(=O)[C@H](CC(C)C)NC(=O)[C@H](Cc1c[nH]c2ccccc12)NC(=O)[C@H](CCCCN)NC(=O)[C@@H](NC(=O)[C@H](Cc1ccccc1)NC(=O)[C@H](CCC(=O)O)NC(=O)[C@H](C)NC(=O)[C@H](CCC(N)=O)NC(=O)[C@H](C)NC(=O)[C@H](CCC(N)=O)NC(=O)[C@H](CCCCN)NC(=O)[C@H](CC(=O)O)NC(=O)[C@H](CC(C)C)NC(=O)C(C)(C)NC(=O)[C@H](Cc1ccncc1)NC(=O)C(C)(C)NC(=O)[C@H](Cc1ccc(O)cc1)NC(=O)[C@H](CC(=O)O)NC(=O)[C@H](CO)NC(=O)[C@@H](NC(=O)[C@](C)(Cc1ccccc1)NC(=O)[C@@H](NC(=O)CNC(=O)[C@H](CCC(=O)O)NC(=O)C(C)(C)NC(=O)[C@@H](N)Cc1ccc(O)cc1)[C@@H](C)O)[C@@H](C)O)C(C)C)C(=O)N[C@@H](CCCCN)C(=O)NCC(=O)NCC(=O)N1CCC[C@H]1C(=O)N[C@@H](CO)C(=O)N[C@@H](CO)C(=O)NCC(=O)N[C@@H](C)C(=O)N1CCC[C@H]1C(=O)N1CCC[C@H]1C(=O)N1CCC[C@H]1C(=O)N[C@@H](CO)C(=O)N[C@@H](CCCCN)C(N)=O` [Example 12] (H-Y[Aib]EGT[αMeF]TSDY[Aib][4Pal][Aib]LDKQAQAEFVKWLLKGGPSSGAPPPSK-NH2), for which the figures for the EC50 on human GIPR, at human glucagon R and at human GLP-1R were 0.0072 nM, > 1000 nM and 0.014 nM, respectively.
For the molecule `CC(C)C[C@H](NC(=O)[C@H](CC(C)C)NC(=O)[C@H](Cc1c[nH]c2ccccc12)NC(=O)[C@H](CCCCN)NC(=O)[C@@H](NC(=O)[C@H](Cc1ccccc1)NC(=O)[C@H](CCC(=O)O)NC(=O)[C@H](C)NC(=O)[C@H](CCC(N)=O)NC(=O)[C@H](C)NC(=O)[C@H](CCC(N)=O)NC(=O)[C@H](CCCCN)NC(=O)[C@H](CC(=O)O)NC(=O)[C@H](CC(C)C)NC(=O)C(C)(C)NC(=O)[C@H](Cc1ccccc1)NC(=O)C(C)(C)NC(=O)[C@H](Cc1ccc(O)cc1)NC(=O)[C@H](CC(=O)O)NC(=O)[C@H](CO)NC(=O)[C@@H](NC(=O)[C@](C)(Cc1ccccc1)NC(=O)[C@@H](NC(=O)CNC(=O)[C@H](CCC(=O)O)NC(=O)C(C)(C)NC(=O)[C@@H](N)Cc1ccc(O)cc1)[C@@H](C)O)[C@@H](C)O)C(C)C)C(=O)N[C@@H](CCCCN)C(=O)NCC(=O)NCC(=O)N1CCC[C@H]1C(=O)N[C@@H](CO)C(=O)N[C@@H](CO)C(=O)NCC(=O)N[C@@H](C)C(=O)N1CCC[C@H]1C(=O)N1CCC[C@H]1C(=O)N1CCC[C@H]1C(=O)N[C@@H](CO)C(=O)N[C@@H](CCCCN)C(N)=O` [Example 11] (H-Y[Aib]EGT[αMeF]TSDY[Aib]F[Aib]LDKQAQAEFVKWLLKGGPSSGAPPPSK-NH2), the concentration giving a half-maximal response (EC50) at human GIPR is 0.015 nM; at human glucagon R, > 1000 nM; at human GLP-1R it was 0.022 nM.
